Laboratory results from PMC11672137, “High-Affinity Lectin Ligands Enable the Detection of Pathogenic Pseudomonas aeruginosa Biofilms: Implications for Diagnostics and Therapy” (JACS Au, 2024).

Columns and labels:
[1] = tested on: P. aeruginosa PAO1 biofilms; assay: In vitro biofilm staining under flow conditions, compound supplementation to the medium; format: cell-based, Pseudomonas aeruginosa; conditions: 3 mL/h
Procedure: (§1) P. aeruginosa biofilms were grown under flow conditions and observed by fluorescence microscopy in analogy to Ghanbari et al.[66] To this end, P. aeruginosa PAO1 expressing the red fluorescent protein mCherry[56] was diluted to an OD600 nm of 0.1 and injected into the microfluidics device. After a 30-min settling period, biofilms were grown under a constant laminar flow rate of 3 mL/h per channel. Following 48 h of incubation at 30 °C, dense and mature P. aeruginosa PAO1 biofilms were observed, which were then further used for analysis of the imaging probes.
To circumvent these technical drawbacks, the addition of compounds to the medium reservoir and retention at the biofilm was pursued. Imaging compounds were added to the medium reservoirs at a concentration of 500 nM, which were continuously pumped (3 mL/h) through the flow cell for 4 h. Compound accumulation at mature P. aeruginosa biofilms was immediately analyzed using fluorescence microscopy. Afterwards, the medium was exchanged, and the biofilms were washed for 30 min (3 mL/h, no compound) to monitor the retention (Figure 5). Furthermore, an analysis using CLSM was also performed after 4 h of accumulation without washing (Figures 5 and S22).
Figure 5 Staining of P. aeruginosa PAO1 biofilms grown under flow conditions with compound supplementation to the medium. Biofilm staining with (A) fluorescein divalent probe 17, (B) fluorescein control 24, (C) BODIPY divalent probe 19, and (D) BDP FL azide control 18 was monitored after 4 h of accumulation under constant flow (3 mL/h) of LB media containing 500 nM of respective compound. Retention of imaging compounds is shown after a subsequent wash period for 30 min with medium (3 mL/h, no compound). Images were recorded by using a fluorescence microscope. CLSM was performed for (E) BODIPY divalent probe 19 and the control (F) BDP FL azide 18 after 4 h of accumulation. Green signal originates from fluorescently labeled probes 17 and 19 and controls 24 and 18. P. aeruginosa constitutively expressing mCherry from pMP7605^56 is shown in red. Z-Stack size, 2 μm. Scale bar = 50 μm.
In vitro biofilm staining under flow conditions
The flow cell experiment was set up in analogy to Ghanbari et al. and in this study, optimized and established for biofilm staining.25 In principle, the experiment is based on an inlet connected to a medium source, a peristaltic pump providing constant medium flow, a flow chamber enabling analysis of bacterial growth and an outlet (waste container/bottle).
The medium used in the flow system was LB diluted by factor 5 containing 60 µg/mL
Gm. Silicone tubings 1.6 mm (ibidi, Germany) were used transporting medium from inlet to the peristaltic pump (Watson-Marlow Fluid Technology Solutions). Stopper hoses (CarlRoth) placed in peristaltic pump were coupled to silicone tubes via connectors (ibidi, Germany).
Stopper hoses are connected to bubble traps (obtained by Claus Sternberg, DTU Copenhagen) via 0.8 mm silicone tubing (ibidi, Germany). Bubble traps were used to remove air from the medium flow and to avoid biofilm disruption. Downstream from the bubble traps, the flow cell (μ-Slide VI 0.4 ibiTreat, ibidi, Germany) was placed into the system and connected to 1.6 mm silicone tubes (ibidi, Germany). The outlet is leading the medium from flow chamber to a waste […]
In order to inoculate the flow cell with P. aeruginosa PAO1 mCherry (pMP7605)23 the silicone tubes upstream and downstream of the flow chamber were pinched off by using commercial plastic clamps. The medium flow was stopped and the flow cell was inoculated by injecting 300 µL of the bacterial suspension (OD600nm of 0.1) into the silicone tubing upstream of the flow chamber. For this, a cannula (0.30 x 12 mm, Sterican) was used. The injection point was sealed with silicone glue. After bacterial settling time of 30 min, the flow was started again and clamps were removed. Growth temperature was regulated by using a heat system (ibidi, […]
Germany). […]

[2] = tested on: P. aeruginosa PAO1 biofilms; assay: In vitro biofilm staining under flow conditions, injection method; format: cell-based, Pseudomonas aeruginosa; conditions: 17 μM in channel, 10 min incubation, then flow 3 mL/h for 10-20 min
Procedure: as §1
Two different staining methods were evaluated for the imaging of P. aeruginosa PAO1 biofilms: (I) direct injection of the imaging compounds into the flow system or (II) compound supplementation into the medium and gradual accumulation at the biofilm (Figure S18). […] The flow of compounds 17 and 24 and their arrival in the flow cells were monitored using a fluorescence microscope attached to the flow system. […]
Figure 4 Staining of P. aeruginosa PAO1 biofilms under flow following the injection method. […] Pictures of the same aggregates were recorded prior to compound injection (t−10), during a 10 min incubation period without flow (t0) and during the wash period (constant flow, 3 mL/h) at different time points t5, t10, t15, and t20 (5, 10, 15, and 20 min) using a fluorescence microscope. […]

[3] = target: T1, LecA (Pseudomonas aeruginosa, UniProt Q05097); assay: Direct binding assay based on fluorescence polarization, titration with LecA; conditions: read-out: Kd (direct binding, fluorescence polarization); LecA titrated to fluorescent probe, TBS/Ca2+ buffer
T1 construct: made in house
T1 sequence (Q05097 whole entry): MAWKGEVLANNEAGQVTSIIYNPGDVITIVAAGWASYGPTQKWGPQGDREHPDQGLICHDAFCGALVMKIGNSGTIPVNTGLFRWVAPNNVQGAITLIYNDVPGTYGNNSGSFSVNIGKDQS
Procedure: The binding affinities of imaging probes 2–4 for LecA were determined using a direct binding assay based on fluorescence polarization (FP).[47]
(A, C) Monovalent LecA imaging probes 2–4 based on phenyl β-D-galactoside (1) were titrated with LecA. […] (E) Xyloside-fluorescein conjugate (8) and azido fluorescein (9) served as negative controls in titrations with LecA and LecB, respectively. Averages and standard deviations were determined from at least three independent titrations of technical triplicates each.
Direct binding affinity determination of LecA and LecB imaging probes was performed with direct titration of protein and imaging probes in TBS/Ca2+ buffer. Protein dilution series was prepared in 96 well plates and 10 µL of each dilution in triplicates were mixed with 10 µL of fluorescent compound (20 nM) in 384-well microtiter plates (Greiner Bio-One, Germany, cat no 781900). The plates were centrifuged (1 min, 500 g), sealed and incubated for 2 h in dark wet chamber under gentle shaking. Fluorescence was measured on a PheraStar FS plate reader (BMG Labtech GmbH, Germany) with excitation filters at 485 nm and emission filters at 535 nm. The data were analysed with MARS Data Analysis Software (BMG Labtech GmbH, Germany) to calculate Kd values.

O=C(CCc1ccc(O[C@@H]2O[C@H](CO)[C@H](O)[C@H](O)[C@H]2O)cc1)Nc1ccc(CN(CCc2cn(CCOCCOCCOCCNC(=S)Nc3ccc4c(c3)C(=O)OC43c4ccc(O)cc4Oc4cc(O)ccc43)nn2)Cc2ccc(NC(=O)CCc3ccc(O[C@@H]4O[C@H](CO)[C@H](O)[C@H](O)[C@H]4O)cc3)cc2)cc1 [compound 17]
Biofilm staining after accumulation ([1]; 500 nM in medium, 4 h, fluorescence microscope): successfully stained PAO1 biofilms | Retention at biofilm after wash ([1]; after 4 h accumulation at 500 nM, 30 min wash, no compound): still visible at a lower intensity | Retention of fluorescence at biofilm during wash [2]: retained at the P. aeruginosa biofilm aggregates | Kd [3]: 1050 ± 120 nM
